How the values were obtained:
Format in all cases: in vivo
[1] = test system: Setaria faberi (SETFA); experiment: Glasshouse herbicidal test, pre- and post-emergence, Setaria faberi; settings: 250 g/h, evaluated after 13 days, five point scale; for percentage damage caused to the plant, SETFA POST: post-emergence; for percentage damage caused to the plant, SETFA PRE: pre-emergence
Experimental: (§1) Seeds of a variety of test species are sown in standard soil in pots (Lolium perenne (LOLPE), Setaria faberi (SETFA), Alopecurus myosuroides (ALOMY), Echinochloa crus-galli (ECHCG), Avena fatua (AVEFA)). After cultivation for one day (pre-emergence) or after 8 days cultivation (post-emergence) under controlled conditions in a glasshouse (at 24/16° C., day/night; 14 hours light; 65% humidity), the plants are sprayed with an aqueous spray solution derived from the formulation of the technical active ingredient in acetone/water (50:50) solution containing 0.5% Tween 20 (polyoxyethelyene sorbitan monolaurate, CAS RN 9005-64-5). Compounds are applied at […]. The test plants are then grown in a glasshouse under controlled conditions in a glasshouse (at 24/16° C., day/night; 14 hours light; 65% humidity) and watered twice daily. After 13 days for pre and post-emergence, the test is evaluated for the percentage damage caused to the plant. The biological activities are shown in the following table on a five point scale (5=80-100%; 4=60-79%; 3=40-59%; 2=20-39%; 1=0-19%).

[2] = test system: Avena fatua (AVEFA); experiment: Glasshouse herbicidal test, pre- and post-emergence, Avena fatua; settings: 250 g/h, evaluated after 13 days, five point scale; for percentage damage caused to the plant, AVEFA POST: post-emergence; for percentage damage caused to the plant, AVEFA PRE: pre-emergence
Experimental: as §1

[3] = test system: Echinochloa crus-galli (ECHCG); experiment: Glasshouse herbicidal test, pre- and post-emergence, Echinochloa crus-galli; settings: 250 g/h, evaluated after 13 days, five point scale; for percentage damage caused to the plant, ECHCG POST: post-emergence; for percentage damage caused to the plant, ECHCG PRE: pre-emergence
Experimental: as §1

[4] = test system: Lolium perenne (LOLPE); experiment: Glasshouse herbicidal test, pre- and post-emergence, Lolium perenne; settings: 250 g/h, evaluated after 13 days, five point scale; for percentage damage caused to the plant, LOLPE POST: post-emergence; for percentage damage caused to the plant, LOLPE PRE: pre-emergence
Experimental: as §1

[5] = test system: Alopecurus myosuroides (ALOMY); experiment: Glasshouse herbicidal test, pre- and post-emergence, Alopecurus myosuroides; settings: 250 g/h, evaluated after 13 days, five point scale; for percentage damage caused to the plant, ALOMY POST: post-emergence; for percentage damage caused to the plant, ALOMY PRE: pre-emergence
Experimental: as §1

CC#Cc1cc(C)c(C2C(=O)CC3(CCN(C(=O)C(C)(F)F)CC3)CC2=O)c(C)c1 [Compound A22]
5 (5=80-100%): percentage damage caused to the plant, SETFA POST [1] | percentage damage caused to the plant, SETFA PRE [1] | percentage damage caused to the plant, AVEFA POST [2] | percentage damage caused to the plant, AVEFA PRE [2] | percentage damage caused to the plant, ECHCG POST [3] | percentage damage caused to the plant, ECHCG PRE [3] | percentage damage caused to the plant, LOLPE POST [4] | percentage damage caused to the plant, LOLPE PRE [4] | percentage damage caused to the plant, ALOMY POST [5] | percentage damage caused to the plant, ALOMY PRE [5]

CC#Cc1cc(C)c(C2C(=O)CC3(CCN(C(=O)C(C)(C)F)CC3)CC2=O)c(C)c1 [Compound A23]
5 (5=80-100%): percentage damage caused to the plant, SETFA POST [1] | percentage damage caused to the plant, SETFA PRE [1] | percentage damage caused to the plant, AVEFA POST [2] | percentage damage caused to the plant, AVEFA PRE [2] | percentage damage caused to the plant, ECHCG POST [3] | percentage damage caused to the plant, ECHCG PRE [3] | percentage damage caused to the plant, LOLPE POST [4] | percentage damage caused to the plant, LOLPE PRE [4] | percentage damage caused to the plant, ALOMY POST [5] | percentage damage caused to the plant, ALOMY PRE [5]

CC#Cc1cc(C)c(C2C(=O)CC3(CCN(C(=O)C(C)C(F)(F)F)CC3)CC2=O)c(C)c1 (stereo not shown) [Compound A24]
5 (5=80-100%): percentage damage caused to the plant, SETFA POST [1] | percentage damage caused to the plant, SETFA PRE [1] | percentage damage caused to the plant, AVEFA POST [2] | percentage damage caused to the plant, AVEFA PRE [2] | percentage damage caused to the plant, ECHCG POST [3] | percentage damage caused to the plant, ECHCG PRE [3] | percentage damage caused to the plant, LOLPE POST [4] | percentage damage caused to the plant, LOLPE PRE [4] | percentage damage caused to the plant, ALOMY POST [5] | percentage damage caused to the plant, ALOMY PRE [5]

CC#Cc1cc(C)c(C2C(=O)CC3(CCN(C(=O)CC(F)(F)F)CC3)CC2=O)c(C)c1 [Compound A25]
5 (5=80-100%): percentage damage caused to the plant, SETFA POST [1] | percentage damage caused to the plant, SETFA PRE [1] | percentage damage caused to the plant, AVEFA POST [2] | percentage damage caused to the plant, AVEFA PRE [2] | percentage damage caused to the plant, ECHCG POST [3] | percentage damage caused to the plant, ECHCG PRE [3] | percentage damage caused to the plant, LOLPE POST [4] | percentage damage caused to the plant, LOLPE PRE [4] | percentage damage caused to the plant, ALOMY POST [5] | percentage damage caused to the plant, ALOMY PRE [5]

CC#Cc1cc(C)c(C2C(=O)CC3(CCN(C(=O)C(F)(F)C(F)(F)F)CC3)CC2=O)c(C)c1 [Compound A26]
5 (5=80-100%): percentage damage caused to the plant, SETFA POST [1] | percentage damage caused to the plant, SETFA PRE [1] | percentage damage caused to the plant, AVEFA POST [2] | percentage damage caused to the plant, AVEFA PRE [2] | percentage damage caused to the plant, ECHCG POST [3] | percentage damage caused to the plant, ECHCG PRE [3] | percentage damage caused to the plant, LOLPE POST [4] | percentage damage caused to the plant, LOLPE PRE [4] | percentage damage caused to the plant, ALOMY POST [5] | percentage damage caused to the plant, ALOMY PRE [5]

CC#Cc1cc(C)c(C2C(=O)CC3(CCN(C(=O)C(C)(Cl)Cl)CC3)CC2=O)c(C)c1 [Compound A27]
5 (5=80-100%): percentage damage caused to the plant, SETFA POST [1] | percentage damage caused to the plant, SETFA PRE [1] | percentage damage caused to the plant, AVEFA POST [2] | percentage damage caused to the plant, AVEFA PRE [2] | percentage damage caused to the plant, ECHCG POST [3] | percentage damage caused to the plant, ECHCG PRE [3] | percentage damage caused to the plant, LOLPE POST [4] | percentage damage caused to the plant, LOLPE PRE [4] | percentage damage caused to the plant, ALOMY POST [5] | percentage damage caused to the plant, ALOMY PRE [5]

CC#Cc1cc(C)c(C2C(=O)CC3(CCN(C(=O)C(Cl)Cl)CC3)CC2=O)c(C)c1 [Compound A28]
5 (5=80-100%): percentage damage caused to the plant, SETFA POST [1] | percentage damage caused to the plant, SETFA PRE [1] | percentage damage caused to the plant, AVEFA POST [2] | percentage damage caused to the plant, AVEFA PRE [2] | percentage damage caused to the plant, ECHCG POST [3] | percentage damage caused to the plant, ECHCG PRE [3] | percentage damage caused to the plant, LOLPE POST [4] | percentage damage caused to the plant, LOLPE PRE [4] | percentage damage caused to the plant, ALOMY POST [5] | percentage damage caused to the plant, ALOMY PRE [5]

Reference: patent publication US11542235B2, “Herbicidal 3-azaspiro[5.5] undecane-8, 10-dione compounds” (SYNGENTA PARTICIPATIONS AG, priority 2018, dated 2023)
